Assay results taken from PubChem BioAssay (NCI).
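Step 1: Grow cells in 96-well plates. Step 2: Expose to compound for 48 hours at 5 concentrations. Step 3: Interpolate endpoints linearly; if unreached, use highest concentration. Definition used: TGI = concentration required for complete inhibition of growth.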

Key:
Assay in all cases: inhibition of tumour cell growth, NCI panel, 48 h
NCI-H23 lung = test system: NCI-H23 lung
BT-549 breast = test system: BT-549 breast
HOP-92 NSCLC = test system: HOP-92 NSCLC
A498 renal = test system: A498 renal
SN12C renal = test system: SN12C renal
MALME-3M melanoma = test system: MALME-3M melanoma
SF-539 CNS = test system: SF-539 CNS
HL-60(TB) leukemia = test system: HL-60(TB) leukemia
OVCAR-5 ovarian = test system: OVCAR-5 ovarian
MDA-MB-231 breast = test system: MDA-MB-231 breast
HCT-116 colon = test system: HCT-116 colon
MOLT-4 leukemia = test system: MOLT-4 leukemia
SR leukemia = test system: SR leukemia
SW-620 colon = test system: SW-620 colon
KM12 colon = test system: KM12 colon
SNB-19 CNS = test system: SNB-19 CNS
HS 578T breast = test system: HS 578T breast
MDA-MB-435 = test system: MDA-MB-435
U251 CNS = test system: U251 CNS
UO-31 renal = test system: UO-31 renal
M14 melanoma = test system: M14 melanoma
OVCAR-3 ovarian = test system: OVCAR-3 ovarian
786-0 renal = test system: 786-0 renal
NCI/ADR-RES ovarian = test system: NCI/ADR-RES ovarian
LOX IMVI melanoma = test system: LOX IMVI melanoma
NCI-H226 lung = test system: NCI-H226 lung
HCT-15 colon = test system: HCT-15 colon
SK-OV-3 ovarian = test system: SK-OV-3 ovarian
NCI-H460 lung = test system: NCI-H460 lung
SK-MEL-28 melanoma = test system: SK-MEL-28 melanoma
MCF7 breast = test system: MCF7 breast
OVCAR-8 ovarian = test system: OVCAR-8 ovarian
SF-268 CNS = test system: SF-268 CNS
OVCAR-4 ovarian = test system: OVCAR-4 ovarian
EKVX NSCLC = test system: EKVX NSCLC
RPMI-8226 leukemia = test system: RPMI-8226 leukemia
DU-145 prostate = test system: DU-145 prostate
UACC-62 melanoma = test system: UACC-62 melanoma
K-562 leukemia = test system: K-562 leukemia
SF-295 CNS = test system: SF-295 CNS
HOP-62 NSCLC = test system: HOP-62 NSCLC
IGROV1 ovarian = test system: IGROV1 ovarian
ACHN renal = test system: ACHN renal
UACC-257 melanoma = test system: UACC-257 melanoma
SK-MEL-5 melanoma = test system: SK-MEL-5 melanoma
MDA-N = test system: MDA-N
CAKI-1 renal = test system: CAKI-1 renal
CCRF-CEM leukemia = test system: CCRF-CEM leukemia
A549 NSCLC = test system: A549 NSCLC
PC-3 prostate = test system: PC-3 prostate
RXF 393 renal = test system: RXF 393 renal
NCI-H522 lung = test system: NCI-H522 lung
T-47D breast = test system: T-47D breast
SK-MEL-2 melanoma = test system: SK-MEL-2 melanoma
TK-10 renal = test system: TK-10 renal
HT29 colon = test system: HT29 colon

For `Cc1ccc2c(C(=O)c3c(C)n(CCN4CCOCC4)c4ccccc34)cccc2c1`, the TGI (NCI-H23 lung) was > 100 µM, the TGI (BT-549 breast) was 51.6 µM and the TGI (HOP-92 NSCLC) was 73.1 µM. The TGI (A498 renal) was > 100 µM, the TGI (SN12C renal) was > 100 µM and the TGI (MALME-3M melanoma) was 37.6 µM. It also gave a TGI (SF-539 CNS) of 12.8 µM, a TGI (HL-60(TB) leukemia) of 10.4 µM and a TGI (OVCAR-5 ovarian) of 96.6 µM. For the same molecule, the TGI (MDA-MB-231 breast) was 47.9 µM, the TGI (HCT-116 colon) was 40.9 µM and the TGI (MOLT-4 leukemia) was 36.3 µM. The TGI (SR leukemia) was > 100 µM, the TGI (SW-620 colon) was 16.5 µM and the TGI (KM12 colon) was 57.7 µM. The TGI (SNB-19 CNS) was > 100 µM, the TGI (HS 578T breast) was 25.6 µM and the TGI (MDA-MB-435) was 5.42 µM. The TGI (U251 CNS) was 41 µM, the TGI (UO-31 renal) was > 100 µM and the TGI (M14 melanoma) was 62 µM. The TGI (OVCAR-3 ovarian) was 12.4 µM, the TGI (786-0 renal) was 49 µM and the TGI (NCI/ADR-RES ovarian) was 43.1 µM. For the same molecule, the TGI (LOX IMVI melanoma) was 42.1 µM, the TGI (NCI-H226 lung) was 19.9 µM and the TGI (HCT-15 colon) was 35.4 µM. For the same molecule, the TGI (SK-OV-3 ovarian) was 61 µM, the TGI (NCI-H460 lung) was 89.3 µM and the TGI (SK-MEL-28 melanoma) was > 100 µM. For the same molecule, the TGI (MCF7 breast) was 16.8 µM, the TGI (OVCAR-8 ovarian) was 56.1 µM and the TGI (SF-268 CNS) was 33.8 µM. It also gave a TGI (OVCAR-4 ovarian) of 61.1 µM, a TGI (EKVX NSCLC) of 63.3 µM and a TGI (RPMI-8226 leukemia) of 18.6 µM. For the same molecule, the TGI (DU-145 prostate) was 94.3 µM, the TGI (UACC-62 melanoma) was 45.2 µM and the TGI (K-562 leukemia) was > 100 µM. The TGI (SF-295 CNS) was 37.1 µM, the TGI (HOP-62 NSCLC) was 99.6 µM and the TGI (IGROV1 ovarian) was > 100 µM. It also gave a TGI (ACHN renal) of 88.4 µM, a TGI (UACC-257 melanoma) of 69.4 µM and a TGI (SK-MEL-5 melanoma) of 13 µM. For the same molecule, the TGI (MDA-N) was 84.8 µM, the TGI (CAKI-1 renal) was > 100 µM and the TGI (CCRF-CEM leukemia) was 13 µM. For the same molecule, the TGI (A549 NSCLC) was > 100 µM, the TGI (PC-3 prostate) was 43.2 µM and the TGI (RXF 393 renal) was 54.6 µM. The TGI (NCI-H522 lung) was 29.3 µM, the TGI (T-47D breast) was > 100 µM and the TGI (SK-MEL-2 melanoma) was 42.4 µM. The TGI (TK-10 renal) was 55.6 µM and the TGI (HT29 colon) was 25.6 µM.
